This note sets out measurements from patent publication US20150051295A1, “USE OF PROPANOL AND PROPENOL DERIVATIVES AS ANTIOXIDANTS” (MERCK PATENT GmbH, priority 2011, published 2015).

A short description of the assay: Determination of the reducing (=antioxidative) property: TLC plate chromatographed, then sprayed with potassium permanganate solution. To be noted: substance in MTB ether on TLC silica gel 60F254 plate, heptane/ethyl acetate 2/1, then sprayed with freshly prepared KMnO4/NaOH solution. How it is done: Determination of the reducing (=antioxidative) property of 3-(4-tert-butyl phenyl)-1-(4-methoxyphenyl)prop-2-en-1-ol (substance 1a) and of 3-(4-tert-butylphenyl)-1-(4-methoxyphenyl)propan-1-ol (substance 2a): a little substance is dissolved in MTB ether and applied to a TLC plate (TLC silica gel 60F254 plate). The plate is chromatographed with heptane/ethyl acetate 2/1. […] The Rf values are at 0.61 (substance 2a) and 0.35 (substance 1a).

On to `COc1ccc(C(O)/C=C/c2ccc(C(C)(C)C)cc2)cc1` (centres unmarked) [substance 1a, 3-(4-tert-butylphenyl)-1-(4-methoxyphenyl)prop-2-en-1-ol], for which the “reducing (=antioxidative) property: decolourisation of potassium permanganate spray solution at substance spots” value is on record as “decolorises at the substance spots”. The entry for `COc1ccc(C(O)CCc2ccc(C(C)(C)C)cc2)cc1` (centres unmarked) [substance 2a, 3-(4-tert-butylphenyl)-1-(4-methoxyphenyl)propan-1-ol] is “decolorises at the substance spots”.
